Data: publication PMC7667655, “Targeted Covalent Inhibition of Plasmodium FK506 Binding Protein 35” (ACS Medicinal Chemistry Letters, 2020)
In brackets after ≈: the same amount, converted by molar mass. Where two headings read alike, the source gives them in different places.

How the values were obtained:
[1] = target: T1, FBD35 (PfFKBP35 binding domain) (Plasmodium falciparum, UniProt Q8I4V8); test: Fluorescence polarization competition, FBD35
T1 construct: FKBP35 Q5 -A128; 6His-SUMO (N, cleaved yes); made in house; host or cells: E. coli BL21 DE3

[2] = target: T2, FKBP12 (Homo sapiens, UniProt P62942); test: Fluorescence polarization competition, FKBP12; assay type: binding
T2 construct: 6His-SUMO (N, cleaved yes); made in house; host or cells: E. coli (identical protocol to FBD35, BL21 DE3)

[3] = target: T1, FBD35 (PfFKBP35 binding domain); test: Differential scanning calorimetry, FBD35; details: read-out: FBD35 ΔTM
[4] = target: T2, FKBP12; test: Differential scanning calorimetry, FKBP12; assay type: binding; details: compound 40 µM
[5] = PBS solubility; details: pH 7.4
[6] = target: T3, nLuc-tagged full length PfFKBP35 (Plasmodium falciparum, UniProt Q8I4V8); test: NanoBRET cellular target engagement, nLuc-FKBP35; assay type: cell-based; details: NanoBRET, 2 h incubation
T3 construct: nanoluciferase-tagged (nLuc) full length PfFKBP35 or nLuc-tagged FKBP12; expressed in transfected cells

[7] = target: T4, nLuc-tagged FKBP12 (Homo sapiens, UniProt P62942); test: NanoBRET cellular target engagement, nLuc-FKBP12; assay type: cell-based; details: NanoBRET, 2 h incubation
T4 construct: full length Plasmodium falciparum FKBP35 and human FKBP12 DNA were; expressed in transfected cells

[8] = tested on: NF54 P. falciparum parasites; test: P. falciparum strain NF54 growth-inhibition assay; assay type: cell-based; details: Plasmodium falciparum; luciferase reporter NF54 line, 72 h
Protocol: Figure 6 P. falciparum strain NF54 growth-inhibition assay. […] Proliferation was measured by luminescence after a complete life-cycle and normalized to DMSO (100%) and chloroquine (100 nM, 0%). (B) Structural differences between synthetic ligands and compound IC50s (μM).
Substrate and Extracellular NanoLuc® Inhibitor (Promega, cat. N2160) were diluted at 1:166 and 1:500, respectively, in Opti -MEM I Reduced Serum Media. 25 µL of this solution was added to each well and plate was read immediately using an EnVision Multimode Plate Reader (PerkinElmer). The BRET ratio was calculated using the following formula:
BRET ratio = acceptorsample – acceptorno tracer control donorsample donorno tracer control
NanoBRET Target Engagement Assay (384-well)
HEK293T cells stably expressing either nLuc-FKBP12 or nLuc-FKBP35 were plated at 0.2×10^6 cells/mL in white, clear -bottom 384-well plates (Sigma Aldrich) in Opti -MEM I Reduced Serum Media (ThermoFisher Scientific) using a Mutidrop Combi Reagent Dispenser (ThermoFisher Scientific). Cells were incubated overnight at 37 °C, 5% CO 2. Using a Tecan D300e, the Rap-Gly-BDP tracer was added to cells to 1 µM. Plates were shaken at 700 RPM on an orbital plate shaker and incubated at 37 °C, 5% CO 2 for 10 minutes. Test compounds were added at the indicated concentrations using a Tecan D300e. Plates were shaken at 700 RPM on an orbital plate shaker and incubated at 37 °C, 5% CO 2 for 2 hours. NanoBRET Nano -Glo Substrate and Extracellular NanoLuc® Inhibitor (Promega, cat. N2160) were diluted at 1:166 and 1:500, respectively, in Opti-MEM I Reduced Serum Media. 10 µL of this solution was added to each well and plate was read immediately using an EnVision Multimode Plate Reader (PerkinElmer). The BRET ratio was calculated using the above formula.
Parasite Culture and Inhibition
NF54 P. falciparum parasites constitutively expressing Renilla luciferase (RLuc) and Blasticidin-S deaminase under the PfHsp86 5’ and PfHRP2 3‘ regulatory sequences integrated in the cg6 chromosomal locus 4 were maintained continuous ly in media consisting of human erythrocytes at 2% haematocrit (O+) resuspended in RPMI 1640 (Gibco® 31800022) supplemented with 5% Albumax (Gibco® 11021045; complete medium) and 2.5 µg/mL of Blasticidin (RPI Corp B12150-0.1) in a gas mixture consisting of 5% CO2, 1% O2, and 94% N2 at 37 °C (Trager and Jensen 2005).
Parasitemia was determined every 48 h through microscopic examination of thin blood smears fixed in methanol, stained with 10% Giemsa solution, and sub-cultured to 0.5-1% parasitaemia.
Compound susceptibility assays
In 96-well round-bottom plates, sorbitol -synchronized cultures of ring-stage NF54 P. falciparum parasites were established in triplicate and treated with varying concentrations of the inhibitors (25-0.0038 μM) serially diluted in complete medium. Parasite proliferation rates were analyzed after 72 h using the Renilla-Glo Luciferase Assay, and luminescence was measured using the GloMax® Discover Microplate Reader. EC 50 values were obtained from corrected dose-response curves using GraphPad Prism (version 5; GraphPad Software). Data represent the mean % luminescence relative to 5% DMSO-treated (vehicle, 100% growth) and 100 nM chloroquine-treated (no growth) controls.
In black, clear-bottom 96-well plates (No. 3904 Corning Life Sciences), HEK293T cells were plated at 2x10^5 cells/mL in DMEM high glucose, pyruvate media (ThermoFisher Scientific, cat. 11995073) supplemented with 10% FBS and 1% pen -strep (100 μL final volume). Cells were incubated overnight at 37°C, 5% CO2. Using a Tecan D300e digital dispenser, cells were dosed in triplicate […]
concentration, 100 mM stock in DMSO) and Carfilzomib (10 µM to 4.6 nM final concentration, 10 mM stock in DMSO) normalizing DMSO to 0.25%. Cells were then incubated at 37 °C, 5% CO2 for 72 hours. Following incubation, cells were treated with 70 µL CellTiter-Glo® Luminescent Cell […]

[9] = fluorescence polarization, competitive inhibition model, read-out: FKBP12 IC50
[10] = differential scanning calorimetry, compound 40 µM

T2 sequence (P62942 whole entry): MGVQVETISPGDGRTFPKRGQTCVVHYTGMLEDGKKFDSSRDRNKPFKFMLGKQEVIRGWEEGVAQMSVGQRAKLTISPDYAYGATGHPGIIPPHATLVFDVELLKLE
T1 sequence (Q8I4V8 5-128): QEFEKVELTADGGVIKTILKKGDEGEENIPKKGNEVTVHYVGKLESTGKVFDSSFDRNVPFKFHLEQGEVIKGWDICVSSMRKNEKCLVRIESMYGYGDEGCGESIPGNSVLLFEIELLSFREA
T4 sequence (P62942 whole entry): as the sequence (P62942 whole entry) above
T3 sequence (Q8I4V8 whole entry): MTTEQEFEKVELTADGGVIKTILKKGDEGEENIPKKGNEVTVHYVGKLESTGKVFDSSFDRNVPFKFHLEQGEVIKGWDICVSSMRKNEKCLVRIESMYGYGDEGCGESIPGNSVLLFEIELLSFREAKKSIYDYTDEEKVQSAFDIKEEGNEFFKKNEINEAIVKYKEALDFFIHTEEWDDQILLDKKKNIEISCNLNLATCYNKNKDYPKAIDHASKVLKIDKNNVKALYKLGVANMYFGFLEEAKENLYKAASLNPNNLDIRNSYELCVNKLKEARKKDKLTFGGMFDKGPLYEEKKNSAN

| SMILES | IC50 ([1]; read-out: FBD35 IC50, fluorescence polarization, competitive inhibition model, * incomplete displacement of fluorescent probe) [nM] | IC50 [2, 9] [µM] | ΔTm at 40 µM [3, 10] [°C] | ΔTm at 40 µM [4] [°C] | solubility [5] [µM] | IC50 [1] [nM] | IC50 [2] [µM] | ΔTm at 40 µM [3] [°C] | tracer displacement (in words), FKBP35 [6] | tracer displacement (in words), FKBP12 [7] | IC50 [8] [µM] |
| --- | --- | --- | --- | --- | --- | --- | --- | --- | --- | --- | --- |
| C=CC(=O)Nc1ccccc1[C@@H](CCc1ccc(OC)c(OC)c1)OC(=O)[C@@H]1CCCCN1C(=O)C(=O)c1cc(OC)c(OC)c(OC)c1 [1f] | > 30000 | 3.27 | -1.3 | 1.4 | 23 (≈ 15.5 µg/mL) |  |  |  |  |  |  |
| C=CC(=O)OCC(C)(C)C(=O)C(=O)N1CCCC[C@H]1C(=O)O[C@H](CCc1ccc(OC)c(OC)c1)c1cccc(OCC(=O)O)c1 [2h] |  |  |  | 6.2 | 70 (≈ 44.8 µg/mL) | 137 | 0.038 | 16.3 |  |  |  |
| CCC(C)(C)C(=O)C(=O)N1CCCC[C@H]1C(=O)O[C@H](CCc1ccc(OC)c(OC)c1)c1cccc(OCC(=O)O)c1 [SLFb, reference compound] |  | 0.027 |  | 6.6 | 59 (≈ 34.4 µg/mL) | 761 |  | 2.8 | markedly reduced probe displacement | markedly reduced probe displacement | 33.7 |
| C=CC(=O)NCCCC(=O)N1CCCC[C@H]1C(=O)O[C@H](CCc1ccc(OC)c(OC)c1)c1ccccc1 [2e] |  |  |  | 7.9 |  | 2640 | 3.25 | 13.8 |  |  |  |
| C=CC(=O)Nc1cc(OC)ccc1C(=O)C(=O)N1CCCC[C@H]1C(=O)O[C@H](CCc1ccc(OC)c(OC)c1)c1ccccc1 [2g] |  | > 30 | 0 | 0.1 |  |  |  |  |  |  |  |
| CCC(C)(C)C(=O)C(=O)N1CCCC[C@H]1C(=O)O[C@H](CCc1ccc(OC)c(OC)c1)c1cccc(N)c1 [SLF, reference compound] |  |  |  | 0.4 |  | 177 |  | 2.9 |  |  |  |
